In patent US5434141A, “Medicament for the treatment of hyperlipidaemia and/or atherosclerosis” (Steigerwald Arzneimittelwerk GmbH, priority 1990, dated 1995):
Entries after “also recorded” stand apart in the source; their conditions may differ. Where two headings read alike, the source gives them in different places.

Tests used:
[1] = by contrast with pectin; cited from earlier work
[2] = Experiment 1: hepatic lipid concentration in hamsters fed a lipidaemia diet, 4 weeks; type: in vivo, male golden hamsters; conditions: four weeks
Description: (§1) 3 Groups each of 20 male golden hamsters were fed for 4 weeks with a lipidaemia diet (hamster maintenance diet and 2% cholesterol).
(§2) The dose taken was between 4 and 5 g/kg of body weight and day.
(§3) After 4 weeks the animals were sacrificed and the serum and hepatic lipid concentration was measured. The results of the analyses are compiled in Tables 1, 2 and 3.

[3] = Experiment 1: serum cholesterol and lipid concentration in hamsters fed a lipidaemia diet, 4 weeks; type: in vivo, male golden hamsters; conditions: for hypocholesterolaemic / lipid-lowering action, in words: serum
Description: as §1, §2, §3

[4] = in vivo; cited from earlier work
[5] = Tolerability / toxic effects (general statement); conditions: in vivo
[6] = Experiment 2: hepatic lipid concentration in hamsters fed a lipidaemia diet, 4 weeks; type: in vivo, male golden hamsters; conditions: four weeks
Description: (§4) 3 Groups each of 20 male golden hamsters were fed for 4 weeks with a lipidaemia diet (hamster maintenance diet and 2% cholesterol). The feed in the two treated groups was additionally supplemented with in each case 5% galacturonic acid or DEAE-polygalacturonic acid (DEAE=diethylaminoethyl).
(§5) 3 Groups each of 20 male golden hamsters were treated for 4 weeks like the animals described in 1. […] Group 1 was the lipidaemia control.

[7] = Description: as §4, §5
[8] = mean, n = 20/group, 5% in feed, * p ≤ 0.05
[9] = mean, n = 20/group, 5% in feed, four weeks
[10] = mean, n = 20/group, 5% in feed, four weeks, * p ≤ 0.05
[11] = significant, p≤0.05, four weeks

## O=C(O)[C@H]1O[C@H](O)[C@H](O)[C@@H](O)[C@H]1O [galacturonic acid, α-D-galacturonic acid]
[1]
  solubility in water: readily soluble in water
[2]; 5% in feed
  Hepatic cholesterol, D = difference from the control group: -9%
  Hepatic total lipids, D = difference from the control group: -34%
[2]; [8]
  Hepatic cholesterol concentration: 27 mg/g wet weight
  Hepatic total lipids concentration: 111 mg/g wet weight
[2]; significant
  reduction of total lipid concentration in the liver: 34%
[3]; 5% in feed, four weeks
  Free cholesterol in serum, D = difference from the control group: -19%
  HDL-cholesterol in serum, D = difference from the control group: -20%
  LDL-cholesterol in serum, D = difference from the control group: -23%
  Phospholipids in serum, D = difference from the control group: -17%
  Total cholesterol in serum, D = difference from the control group: -20%
  Total lipids in serum, D = difference from the control group: -18%
  Triglycerides in serum, D = difference from the control group: +7%
  VLDL + LDL-cholesterol in serum, D = difference from the control group: -20%
  VLDL-cholesterol in serum, D = difference from the control group: -14%
[3]; [9]
  Phospholipids concentration in serum: 322 mg/dL
  Total lipids concentration in serum: 1060 mg/dL
  Triglycerides concentration in serum: 216 mg/dL
[3]; [10]
  Free cholesterol concentration in serum: 96 mg/dL
  HDL-cholesterol concentration in serum: 118 mg/dL
  LDL-cholesterol concentration in serum: 117 mg/dL
  Total cholesterol concentration in serum: 271 mg/dL
  VLDL + LDL-cholesterol concentration in serum: 153 mg/dL
  VLDL-cholesterol concentration in serum: 36 mg/dL
[3]
  hypocholesterolaemic / lipid-lowering action, in words: significant decrease in the cholesterol and lipid concentrations; also recorded: has a hypocholesterolaemic action
[3]; listed as α-D-galacturonic acid
  hypocholesterolaemic / lipid-lowering action, in words: shows a hypocholesterolaemic action in the serum
[3]; significant, four weeks
  lowering of serum HDL-cholesterol: 20%
  lowering of serum LDL-cholesterol: 23%
  lowering of serum VLDL- plus LDL-cholesterol: 20%
  lowering of serum free cholesterol: 19%
  lowering of serum phospholipid concentration: 17%
  lowering of serum total lipid concentration: 18%
[3]; [11]
  lowering of serum concentration of total cholesterol: 20%
[4]
  toxic effects: No toxic effects are known
[5]
  tolerability: as a rule well tolerated

## polygalacturonic acid
[6]; 5% in feed
  Hepatic cholesterol, D = difference from the control group: -26%
  Hepatic total lipids, D = difference from the control group: -25%
[6]; [8]
  Hepatic cholesterol concentration: 22.1 mg/g wet weight
  Hepatic total lipids concentration: 67.4 mg/g wet weight
[6]; significant
  lowering of hepatic cholesterol concentration: 26%
  lowering of hepatic total lipid concentration: 25%
[7]; 5% in feed, four weeks
  Free cholesterol in serum, D = difference from the control group: -32%
  HDL-cholesterol in serum, D = difference from the control group: -15%
  LDL-cholesterol in serum, D = difference from the control group: -18%
  Phospholipids in serum, D = difference from the control group: -19%
  Total cholesterol in serum, D = difference from the control group: -13%
  Total lipids in serum, D = difference from the control group: -14%
  VLDL + LDL-cholesterol in serum, D = difference from the control group: -8%
  VLDL-cholesterol in serum, D = difference from the control group: -4%
[7]; [9]
  Phospholipids concentration in serum: 385 mg/dL
  Total lipids concentration in serum: 1338 mg/dL
  Triglycerides concentration in serum: 269 mg/dL
[7]; [10]
  Free cholesterol concentration in serum: 80 mg/dL
  HDL-cholesterol concentration in serum: 149 mg/dL
  LDL-cholesterol concentration in serum: 163 mg/dL
  Total cholesterol concentration in serum: 361 mg/dL
  VLDL + LDL-cholesterol concentration in serum: 212 mg/dL
  VLDL-cholesterol concentration in serum: 48 mg/dL
[7]; significant, four weeks
  lowering of serum phospholipid concentration: 19%
  lowering of serum total lipid concentration: 14%
[7]; [11]
  lowering of serum HDL-cholesterol: 15%
  lowering of serum free cholesterol: 32%
  lowering of serum total cholesterol: 13%
